From patent publication US20250025451A1, “TREATMENT OF CANCER WITH KDM4 INHIBITORS” (Celgene Corporation, priority 2021, published 2025)
Values joined by “and” are separate entries in the source; they are usually repeats but may differ in a detail not shown here. Equal values may be shown once. Read-outs that look alike come from different tables or passages of the source.

Columns and labels:
[1] = system: KYSE-150 human esophageal cancer xenograft; assay type: in vivo; conditions: for Median Tumor Volumes Day 19: KYSE-150 CDX Study #1, female NSG mice; for % TGI / Median Tumor Volumes Diff.: KYSE-150 Study #1; for % TGI: Day 19; for Median Tumor Volumes Diff.: Day 19 minus Day 1
Description: (§1) The therapeutic in vivo efficacy of Compound 1 was evaluated in SU60 colorectal cancer, KYSE-150 esophageal cancer, COH70 triple-negative breast cancer, GXA-3036 gastric adenocarcinoma and OCI-LY19 Diffuse Large B-Cell Non-Hodgkin's Lymphoma xenograft models. In all studies, efficacy was determined based on percent tumor growth inhibition (TGI), differences in mean tumor growth, and statistical assessment of differences in net tumor volume distributions on the day of TGI analysis between control and treated animals. Tolerability was assessed based on differences in mean body weights between control and treated animals over the course of the study.
Study #1—The in vivo therapeutic efficacy and tolerability of Compound 1, administered orally as the lysine salt suspended in a vehicle comprised of 10% PEG 400 and 90% of 0.5% methylcellulose (MC), was evaluated in the KYSE-150 ESCC CDX model established in female NSG mice. As presented in Table 5, […] at 5, 15, or 50 mg/kg (free acid equivalents) administered on the 3 on/4 off schedule yielded dose-dependent TGIs of 19%, 50%, and 72%, respectively. […] As shown in FIG. 11 (left panel), tumor growth in the Compound 1-treated groups was reduced relative to control animals. The relative rates of tumor growth among the various Compound 1-treated groups were consistent with the TGI attained at study end. As presented in FIG. 11 (right panel), Compound 1 appeared well-tolerated with nominal mean body weight gains over the course of the study. Each mouse was inoculated subcutaneously in the right flank with 1×10^7 KYSE-150 tumor cells (0.1 ml) suspended in PBS. When the average tumor size reached ˜117 mm3, test animals were randomized into 4 groups consisting of 9 mice per group and treatments were initiated. Control mice received 10% PEG 400 and 90% of 0.5% MC vehicle PO 3 on/4 off. Treated mice received the Compound 1 lysine salt form suspended in vehicle at 5, 15, or 50 mg/kg on the same schedule. TGI was determined on Day 19 as (1−Difftreated/Diffcontrol)×100; The difference mean net tumor volumes on the day of TGI analysis for treated versus control animals was evaluated statistically using one-way ANOVA followed by Dunnett's multiple comparisons test; Adjusted p-values are shown where a calculated probability (p)≤0.05 was considered statistically significant. Individual tumors were measured twice weekly in three dimensions using a caliper, and the tumor volumes (TV) in mm3 were calculated using the formula: TV=0.5 (l×w×h), where l, w, and h are the tumor length, width, and height in mm, respectively; Mean tumor volumes SEM were calculated and plotted versus days of dosing (left panel). Body weights were measured twice weekly. Body weights±SEM were calculated and plotted versus days of dosing (right panel).

[2] = system: MDA-MB-231 cells; assay: cell cycle analysis in MDA-MB-231 cells; assay type: cell-based
Description: FIG. 3 illustrates that Compound 1 induces cell cycle arrest in S-phase. […] Cell cycle analysis was performed with MDA-MB-231 cells and using MultiCycle AV DNA analysis software.

[3] = system: GXA-3036 gastric adenocarcinoma patient-derived xenograft; assay: in vivo efficacy, GXA-3036 gastric adenocarcinoma patient-derived xenograft model; conditions: GXA-3036 PDX; for Median Tumor Volume Diff. (Day 35): Day 35 minus Day 0; for Median Tumor Volume Diff. (Day 38): Day 38 minus Day 0
Description: as §1
The in vivo efficacy and tolerability of Compound 1, administered orally as the lysine salt form suspended in a vehicle comprised of 5% 2-hydroxypropyl-beta-cyclodextrin (HPBCD) in 50 mM phosphate buffer (pH 7.4), were evaluated in female immunodeficient NMRI-Foxn1nu mice using the subcutaneous gastric adenocarcinoma GXA-3036, a moderately differentiated intestinal type (based on Lauren's criteria) PDX model of Asian origin. Each mouse was inoculated subcutaneously in the right flank with a GXA-3036 tumor fragment (3 to 4 mm edge length). When the average tumor size reached ˜109 mm3, test animals were randomized into 5 groups consisting of 8 mice per group and treatments were initiated. Control mice received 5% HPBCD in 50 mM phosphate buffer (pH 7.4) vehicle PO 3 on/4 off. Treated mice received the Compound 1 lysine salt form in vehicle at 5, 15, or 50 mg/kg on the same schedule or at 22.5 mg/kg 2 on/5 off. One control animal, classified as moribund, was euthanized on Day 17 and was censored from analysis. Individual tumors were measured twice weekly in two dimensions using a caliper, and the tumor volumes (TV) in mm3 were calculated using the formula: TV=0.5 a×b2, where a and b are the long and short diameters in mm, respectively. Mean tumor volumes±SEM were calculated and plotted versus days of dosing (FIG. 14 left panel). Body weights were measured twice weekly. Body weights±SEM were calculated and plotted versus days of dosing (FIG. 14 right panel).
TGI was determined on Days 35 and 38 as (1−Difftreated/Diffcontrol)×100. The differences in median net tumor volumes on the days of TGI analysis for treated versus control animals were evaluated statistically using the non-parametric Kruskal-Wallis test followed by Dunn's multiple comparisons test. The reported adjusted p-values are for both days of TGI analysis where a calculated probability (p)≤0.05 was considered statistically significant.

[4] = system: colorectal cancer PDX models; assay: culture-based viability inhibition assay, colorectal cancer PDX models; assay type: cell-based; conditions: for IC50: read-out: IC50 (range over sensitive models); for Sensitive to Compound 1 (models sensitive/tested): sensitive = IC50<1 μM
Description: A panel of 13 colorectal cancer PDX models and 6 colorectal cancer organoid PDX models were tested for their sensitivity to Compound 1 in culture-based viability inhibition assays. The MSI-H status of the studied colorectal cancer cell lines and their respective mutations of the MMR path genes are shown in FIG. 19.

[5] = 15 mg/kg PO 3 on/4 off, 15 mg/kg
[6] = 50 mg/kg PO 3 on/4 off, 50 mg/kg
[7] = 22.5 mg/kg PO 2 on/5 off, 22.5 mg/kg
[8] = MSI colorectal cancer PDX models
[9] = MSS colorectal cancer PDX models

Structure (SMILES): CC(C)c1ccc(N(C)c2ccc3c(c2)OCC[C@H]3CNc2cnccc2C(=O)O)cc1 [Compound 1, 3-({[(4R)-7-{methyl[4-(propan-2-yl)phenyl]amino}-3,4-dihydro-2H-1-benzopyran-4-yl]methyl}amino)pyridine-4-carboxylic acid]
- Median Tumor Volumes Day 19 ([1]; lysine salt 5 mg/kg (free acid equivalents) PO 3 on/4 off): 824 mm^3
- Median Tumor Volumes Day 19 ([1]; lysine salt 15 mg/kg (free acid equivalents) PO 3 on/4 off): 569 mm^3
- Median Tumor Volumes Day 19 ([1]; lysine salt 50 mg/kg (free acid equivalents) PO 3 on/4 off): 359 mm^3
- % TGI ([1]; 5 mg/kg PO 3 on/4 off, 5 mg/kg): 19%
- % TGI ([1]; 5 mg/kg PO 3 on/4 off, listed as compound 4, 5 mg/kg): 19%
- Median Tumor Volumes Diff. ([1]; 5 mg/kg PO 3 on/4 off): 719 mm^3
- % TGI [1, 5]: 50%
- % TGI ([1]; 15 mg/kg PO 3 on/4 off, listed as compound 4, 15 mg/kg): 50%
- Median Tumor Volumes Diff. ([1]; 15 mg/kg PO 3 on/4 off): 442 mm^3
- % TGI [1, 6]: 72%
- % TGI ([1]; 50 mg/kg PO 3 on/4 off, listed as compound 4, 50 mg/kg): 72%
- Median Tumor Volumes Diff. ([1]; 50 mg/kg PO 3 on/4 off): 250 mm^3
- effect on cell cycle [2]: increased proportion of cells in S-phase in a dose-dependent manner
- tolerability (mean body weights) ([3]; female NMRI-Foxn1nu mice, all regimens): well-tolerated
- Median Tumor Volume Day 35 ([3]; female NMRI-Foxn1nu mice, lysine salt 5 mg/kg (free acid equivalents) PO 3 on/4 off): 391 mm^3
- Median Tumor Volume Day 35 ([3]; female NMRI-Foxn1nu mice, lysine salt 15 mg/kg (free acid equivalents) PO 3 on/4 off): 278 mm^3
- Median Tumor Volume Day 35 ([3]; female NMRI-Foxn1nu mice, lysine salt 22.5 mg/kg (free acid equivalents) PO 2 on/5 off): 447 mm^3
- Median Tumor Volume Day 35 ([3]; female NMRI-Foxn1nu mice, lysine salt 50 mg/kg (free acid equivalents) PO 3 on/4 off): 371 mm^3
- Median Tumor Volume Day 38 ([3]; 5 mg/kg PO 3 on/4 off): 460 mm^3
- % TGI (Day 35) ([3]; 5 mg/kg PO 3 on/4 off, 5 mg/kg): 52%
- Median Tumor Volume Diff. (Day 35) ([3]; 5 mg/kg PO 3 on/4 off): 282 mm^3
- % TGI (Day 38) ([3]; 5 mg/kg PO 3 on/4 off, 5 mg/kg): 43%
- Median Tumor Volume Diff. (Day 38) ([3]; 5 mg/kg PO 3 on/4 off): 351 mm^3
- Median Tumor Volume Day 38 ([3]; 15 mg/kg PO 3 on/4 off): 298 mm^3
- % TGI (Day 35) [3, 5]: 71%
- Median Tumor Volume Diff. (Day 35) ([3]; 15 mg/kg PO 3 on/4 off): 169 mm^3
- % TGI (Day 38) [3, 5]: 69%
- Median Tumor Volume Diff. (Day 38) ([3]; 15 mg/kg PO 3 on/4 off): 189 mm^3
- Median Tumor Volume Day 38 ([3]; 22.5 mg/kg PO 2 on/5 off): 470 mm^3
- % TGI (Day 35) [3, 7]: 42%
- Median Tumor Volume Diff. (Day 35) ([3]; 22.5 mg/kg PO 2 on/5 off): 338 mm^3
- % TGI (Day 38) [3, 7]: 41%
- Median Tumor Volume Diff. (Day 38) ([3]; 22.5 mg/kg PO 2 on/5 off): 361 mm^3
- Median Tumor Volume Day 38 ([3]; 50 mg/kg PO 3 on/4 off): 403 mm^3
- % TGI (Day 35) [3, 6]: 55%
- Median Tumor Volume Diff. (Day 35) ([3]; 50 mg/kg PO 3 on/4 off): 262 mm^3
- % TGI (Day 38) [3, 6]: 52%
- Median Tumor Volume Diff. (Day 38) ([3]; 50 mg/kg PO 3 on/4 off): 294 mm^3
- IC50 [4, 8]: 1 to 14 nM
- Sensitive to Compound 1 (models sensitive/tested) [4, 8]: 5 out of 5 and 5/5
- IC50 [4, 9]: 3 to 270 nM
- Sensitive to Compound 1 (models sensitive/tested) [4, 9]: 4 out of 8 and 4/8
